Data on three compounds can be found in patent publication US20250041291A1, “COMPOSITIONS AND METHODS FOR TREATING CANCER” (Emmaus Life Sciences, Inc, priority 2021, published 2025).

Common to all, as to assay type: cell-based
Assay [1] has as its system human adipose stromal cells (ASC). Put plainly: cell number (proliferation) of human adipose stromal cells after 24 h treatment. As to conditions: 25% FBS; for ASC growth / ASC number as compared to vehicle control: at 100 μM. On the procedure:
(§1) MOLM-13 cells were cultured in RPMI1640, red phenol free, in presence of 2, 10 and 25% of fetal bovine serum (FBS). 25% FBS simulates the level of serum present in the blood. Adipose stromal cells (ASC) and human fibroblast primary cells were used as reference controls. Compound A, at various concentrations (0.05 to 100 μM), was added to the cells and incubated for 24 h, with or without the co-treatment with olaparib (a PARP inhibitor, Ola). Olaparib or ibrutinib (a BTK inhibitor) alone was also tested with these cells.

Assay [2] has the same test system. Put plainly: caspase 3/7 activity (apoptosis) in human adipose stromal cells. As to conditions: 25% FBS, 24 h; for activity of caspase 3 or 7 / induction of apoptosis in ASC: all tested concentrations (up to 100 μM). Here is the method: as §1
Assay [3] relates to MOLM-13 cells (adult acute myeloid leukemia) expressing the FLT3-ITD mutation. Briefly: cell number (proliferation) of MOLM-13 cells expressing FLT3-ITD. On the procedure:
(§2) In this example, MOLM-13 cells (adult acute myeloid leukemia) expressing the FLT3-ITD mutation were used to test Compound A to decrease their cell proliferation and increase their apoptosis level. Midostaurin (mido), an inhibitor of FLT3, was used as a positive control.
as §1

The test system is the same in assay [4]. Briefly: caspase 3/7 activity (apoptosis) in MOLM-13 cells expressing FLT3-ITD. Here is the method: as §2, §1
In assay [5] the test system is MWCL-1 cells (adult Waldenström macroglobulinemia cells) expressing the Myd88 L265P mutation. Briefly: caspase 3/7 activity (apoptosis) in MWCL-1 cells expressing Myd88 L265P. On the procedure:
(§3) In this study, MWCL-1 cells (adult Waldenström macroglobulinemia cells) expressing the Myd88 L265P mutation were used to test different drugs for their effects on cell proliferation and apoptosis. Midostaurin (an inhibitor of FLT3, mido) was used as reference control.
(§4) MWCL-1 cells were cultured in RPMI1640, in presence of 2, 10 and 25% of fetal bovine serum (FBS). The number of MWCL-1 cells decreased only at higher Compound A concentration (50 and 100 μM), during a 24 h treatment, at 2, 10 and 25% FBS (FIGS. 6A, 7A and 8A). Also, the levels of caspase 3/7 activity in the cells were elevated only at the higher concentrations (50 and 100 μM, FIGS. 6B, 7B and 8B), which is consistent with the decreased cell growth.

Assay [6] deals with human fibroblast primary cells. Put plainly: cell growth (proliferation) of human fibroblast primary cells. Particulars: at 100 μM, but not at lower concentrations; 25% FBS; 24 h. Here is the method:
as §1

The test system of assay [7] is human fibroblast primary cells. Put plainly: caspase 3/7 activity (apoptosis) in human fibroblast primary cells. Particulars: 25% FBS, 24 h. On the procedure: as §1
For assay [8], the system named is MWCL-1 cells (adult Waldenström macroglobulinemia cells) expressing the Myd88 L265P mutation. Briefly: cell number (proliferation) of MWCL-1 cells expressing Myd88 L265P. Here is the method:
as §3, §4

Where [9] appears, read: alone, at 10 μM, 2, 10 or 25% FBS.
The mark [10] stands for this setting: 1 to 100 μM, dose-dependent, 2% or 10% FBS, 24 h.

“4-[(3-[(4-cyclopropylcarbonyl)piperazin-1-yl]carbonyl)-4-fluorophenyl]methyl(2H)phthalazin-1-one [olaparib, reference compound]”: in assay [1], the “ASC growth / ASC number as compared to vehicle control” value was “inhibited ASC growth”. In addition, in assay [2], the “activity of caspase 3 or 7 / induction of apoptosis in ASC” value is “did not induce apoptosis”. The “numbers of MOLM-13 cells” value in assay [3] (setting [9]) is reported as “did not decrease”. Also, the “apoptotic levels of MOLM-13 cells” value in assay [4] (setting [9]) is reported as “increased the apoptotic levels”. Further, the “caspase 3/7 activity in MWCL-1 cells” value in assay [5] (at 50, 100 μM, 25% FBS) was “increased the caspase 3/7 activity”.
In the case of `CN1CCN(C(=O)CCCc2cn(-c3ccccc3)c(NC(=O)c3cccc(-c4cnn(C)c4)c3)n2)CC1` [Compound A, 3-(1-methyl-1H-pyrazol-4-yl)-N-(4-(4-(4-methylpiperazin-1-yl)-4-oxobutyl)-1-phenyl-1H-imidazol-2-yl)benzamide], the “cell number increase of human ASC as compared to vehicle control” value in assay [1] (at 50 and 100 μM but not at lower concentrations) is on record as “slower cell number increase”. The “activity of caspase 3 or 7 / induction of apoptosis in ASC” value in assay [2] was “did not change the activity of caspase 3 or 7”. The “cell growth of human fibroblast primary cells” value in assay [6] is “slower cell growth”. The “apoptosis of the fibroblasts” value in assay [7] (tested concentrations) is “No apoptosis”. Moreover, the “numbers of MOLM-13 cells” value in assay [3] (setting [10]) is reported as “decreased”. Moreover, the “response of MOLM-13 cells to anti-cancer effects (proliferation and apoptosis)” value in assay [3] (25% FBS, 24 h) was “responded to the anti-cancer effects”. Further, the “efficiency compared with the other compound (cell numbers and caspase 3/7 activity, MOLM-13)” value in assay [3] (at higher doses) was “more efficient at higher doses than midostaurin”. Also, the “level of caspase 3/7 activity in MOLM-13 cells” value in assay [4] (setting [10]) was “elevated”. The “efficiency compared with midostaurin (MWCL-1 cell number and caspase 3/7 activity)” value in assay [8] (both at 100 μM, 25% FBS) is “more efficient than midostaurin”. In assay [8] (only at 50 and 100 μM, 24 h treatment, 2, 10 and 25% FBS), the “number of MWCL-1 cells” value is “decreased”. The “levels of caspase 3/7 activity in MWCL-1 cells” value in assay [5] (only at 50 and 100 μM, 24 h, 2, 10 and 25% FBS) was “elevated”.
For `C=CC(=O)N1CCC[C@@H](n2nc(-c3ccc(Oc4ccccc4)cc3)c3c(N)ncnc32)C1` [ibrutinib, 1-[(3R)-3-[4-Amino-3-(4-phenoxyphenyl)-1H-pyrazolo[3,4-d]pyrimidin-1-yl]piperidin-1-yl]prop-2-en-1-one], the “ASC growth / ASC number as compared to vehicle control” value in assay [1] is on record as “decrease of ASC number”. Also, the “apoptosis (caspase 3/7 activities) of ASC” value in assay [2] (at 100 μM, but not at lower concentrations) is listed as “induced apoptosis”. Moreover, in assay [7] (at 100 μM), the “caspase 3/7 activities in the fibroblasts” value was “increased the caspase 3/7 activities”.
